Experimental data from patent publication US9808434B2, “Compound for treating cancer and diabetes” (CITY OF HOPE, priority 2011, dated 2017).

Tests used:
PBT003 = assay: Glioma ATP viability assay, PBT003; type: cell-based; conditions: Table 1; 72 hours
Method: Cells of each cell line (U251, U87, PBT-017, PBT018, PBT003 and PBT028) were treated with various concentrations (0˜100 μM) of COH-SR4 for 72 hours. Cell viabilities were determined by ATP viability assays. Data were represented as a ratio to vehicle (DMSO) control, and plotted as mean±SEM (n=12) obtained from 2˜3 experiments (FIG. 34A).
Cells of each cell line (U87, U251, PBT003 and PVT-017) were treated with various concentrations (0˜100 μM) of COH-SR4 for 72 hours. Cell viabilities were determined by ATP viability assays. Data were represented as a ratio to vehicle (DMSO) control, and plotted as mean±SEM (n=12) obtained from 2-3 experiments (FIG. 34B).

PBT-017 glioma cells = assay: Combination index with chemotherapy drugs, PBT-017; type: cell-based
Method: Effects of combination of COH-SR4 and a chemotherapy drug such as TMZ, SN38, CPT-11, and 5-FU were studied by combination index (CI) theorem and plot using the method described in Chou (“Experimental Design, and Computerized Simulation of Synergism and Antagonism in Drug Combination Studies,” Pharmacological Reviews, Vol. 58, No. 3), which is incorporated herein by reference in its entirety.
COH-SR4 and a chemotherapy drug (TMZ, SN38, CPT-11, or 5-FU) were dissolved in DMSO individually, and then diluted to the appropriate concentration in the same cell culture media before applying to cells of each cell line. After 4 days, the amount of ATP present in the cell lysates were assessed using Progema's CellGlo kit. The CI of each combination of COH-SR4 and the chemotherapy drug was calculated and plotted against the concentration of COH-SR4 for each concentration of the chemotherapy drug used.

HAVSMC = assay: Colony formation assay, HAVSMC; type: cell-based, human; conditions: for colony forming potential: vs untreated control
Method: Cell survival was evaluated using a standard colony-forming assay. In total, 1×10^5 cells/mL were incubated with COH-SR4 (1.5 μM or 5 μM) or elesclomol (5 μM) for 24 h, and aliquots of 50 or 100 μL were added to 60 mm size petri dishes, containing 4 mL culture medium. After 7 or 10 days, adherent colonies were fixed, stained with 0.5% methylene blue for 30 min and colonies were counted using the Innotech Alpha Imager HP (91).

[1] = Blood chemistries in C57 B mice; type: in vivo, mouse; conditions: 4 mg/kg b.w. alternate day, 2 weeks
Method: To evaluate the potential toxicity of COH-SR4 on animals, C57 B mice were treated with 0.1 mg/mice (4 mg/kg b.w.) of COH-SR4 or with vehicle on alternate day for 2 weeks (n=6). After the treatment period, blood and plasma/serum were isolated and analyzed. […] The plasma alanine transaminase (ALT) and alkaline phosphatase (ALP) were moderately higher in COH-SR4-treated mice (p<0.05), while the levels of two other liver enzymes; aspartate transaminase (AST) and lactate dehydrogenase (LDH) were similar with control mice (Table 5).

A2058 p^0 cells = assay: Oxygen consumption rate in mitochondrial DNA-depleted cells; type: cell-based, human; conditions: compared with wild-type A2058; data not shown
Method: Oxygen consumption rate (OCR), a measure of OxPhos, and extracellular acidification rate (ECAR), a measure of lactate production by glycolysis, were measured using a Seahorse Xf^e96 Flux Analyzers (Seahorse Biosciences, North Billerica, Mass.). Cells were seeded in DMEM media in Seahorse 96-well tissue culture plates at a density of 5×10^3 cells/well and allowed to adhere for 24 h. Prior to the assay, the media was changed to unbuffered DMEM containing 25 mM glucose, 1 mM pyruvate and 1 mM glutamine, with 0.2% fatty acid/endotoxin-free BSA (w/v) (pH 7.4) and the cells were equilibrated for 30 min at 37° C. Test compounds were injected during the assay and OCR and ECAR were measured using 2-3 min measurement periods. Similar sets of experiments were performed in the presence of the mitochondria recoupler agent 6-KCH or the mitochondrial permeability transition (MPT) pore blocker CSA, where each compound was injected into the assay media prior to COH-SR4 or FCCP injection. […] OCR was measured throughout the different injections of the stressors and test compounds (indicated by arrows in the figures).
To verify that COH-SR4 acts directly on mitochondrial respiration, OCR in mitochondrial DNA-depleted (p^0) A2058 cells was measured, as well as freshly isolated mouse liver mitochondria and treated with either COH-SR4 or FCCP.

[2] = test system: HepG2 liver carcinoma cells; assay: Intracellular AMP:ATP ratio in HepG2; type: cell-based, human; conditions: 5 μM, 1 h
Method: ATP production from cells treated with test compounds were measured using the Luminescent ATP Detection Assay Kit. AMP, ATP and ADP were measured by UV-HPLC.
Total intracellular ATP production in cells treated with either 5 μM COH-SR4 or 5 μM FCCP was measured by bioluminescence assay and expressed as percentage of time-matched vehicle (DMSO) control (FIG. 84A). Intracellular AMP: ATP ratios increased in HepG2 liver carcinoma cells following 1 h treatment with either 5 μM COH-SR4 or 5 μM FCCP (FIG. 84B) and in liver of db/db mice treated with COH-SR4 (5 mg/kg B.W.) for 5 weeks (FIG. 84C). All data represented are mean±SEM, *P<0.05.

Q: What does the source list for `O=C(Nc1cc(Cl)cc(Cl)c1)Nc1cc(Cl)cc(Cl)c1` [COH-SR4, 1,3-bis(3,5-dichlorophenyl) urea]?
A: IC50 (PBT003): 1500 nM; combination effect (CI) with 5-FU (PBT-017 glioma cells; COH-SR4 <0.05 μM + 5-FU >250 μM): Additive effects; combination effect (CI) with CPT-11 (PBT-017 glioma cells; COH-SR4 <0.5 μM + CPT-11 <0.0625 μM): Synergism; combination effect (CI) with SN-38 (PBT-017 glioma cells; COH-SR4 <0.5 μM + SN-38 <0.0004 μM): Synergism; combination effect (CI) with TMZ (PBT-017 glioma cells; COH-SR4 <0.5 μM + TMZ 25 μM): Synergism; combination effect (CI) with TMZ (PBT-017 glioma cells; COH-SR4 <1.0 μM + TMZ >100 μM): Additive effects; combination effect (CI) with SN-38 (PBT-017 glioma cells; COH-SR4 >0.5 μM + SN-38 <0.001 μM): Additive effects; combination effect (CI) with CPT-11 (PBT-017 glioma cells; COH-SR4 >1.0 μM + CPT-11 <0.5 μM): Additive effects; colony formation in normal cells (HAVSMC; 1.5 μM): did not result in significant inhibition of colony formation; colony forming potential (HAVSMC; Example 18, FIG. 65B): 96±4%; colony forming potential (HAVSMC; FIG. 67B, 5 μM): 95±4%; Hematocrit ([1]; mean ± SE, n=6): 41.0 ± 0.7%; Hemoglobin ([1]; mean ± SE, n=6): 13.9 ± 0.4 g/dL; Platelets ([1]; mean ± SE, n=6): 1055 ± 124 ×10^3/uL; RBC ([1]; mean ± SE, n=6): 8.7 ± 0.2 ×10^6/uL; WBC ([1]; mean ± SE, n=6): 7.4 ± 0.9 ×10^3/uL; ALP ([1]; plasma/serum): 119.3 ± 2.4 units/L; ALT ([1]; plasma/serum): 73.3 ± 2.4 units/L; AST ([1]; plasma/serum): 48.0 ± 3.0 units/L; Albumin ([1]; plasma/serum): 2.4 ± 0.1 g/dL; Cholsterol ([1]; plasma/serum): 82.0 ± 0.1 mg/dL; Creatinine ([1]; plasma/serum): 0.2 ± 0.0 mg/dL; Glucose ([1]; plasma/serum): 304.2 ± 21.1 mg/dL; LDH ([1]; plasma/serum): 822.7 ± 56.0 units/L; Triglycerides ([1]; plasma/serum): 78.7 ± 2.4 mg/dL; OCR in mitochondrial DNA-depleted cells (A2058 p^0 cells): failed to increase OCR; intracellular AMP:ATP ratios [2]: increased
